Series [1] in a line: Taste test by a group of volunteers / sensory comparison. Format: in vivo. To be noted: for taste of the material: concentration not given; for Pm, potency compared to sucrose = 1, molar basis / Pw, potency compared to sucrose = 1, weight basis / Taste Character, Bitter / Taste Character, Other / Taste Character, Salty / Taste Character, Sour / Taste Character, Sweet / Taste Character, Sweet/bitter, other: 12 judgements, stevioside 500 ppm, Example 1 534 ppm, saccharin 330 ppm. Here is the method: Steviolbioside, 3-sulfopropyl ester, potassium salt prepared in Part B. was dissolved in distilled water at a concentration of 0.2 wt% and tasted by a group of volunteers. […] The solution was diluted to 0.0534 wt% and retasted.

Assay in series [2]: as above
Format: in vivo. Particulars: for Ip, sample intensity relative to 10% sucrose: mean value(2 Sm), 12 judgements, stevioside 500 ppm, Example 1 534 ppm, saccharin 330 ppm.

Series [3] in a line: Use in comestibles (taste of sweetened beverages and gelatin). It counts as in vivo. Here is the method: Based on the results of Part D, one can employ the compound of Part B as a sweetener for comestibles. In exemplary uses 0.08% by weight of the compound is dissolved in an unsweetened cola beverage, a like concentration of the compound is added to an unsweetened lemonade and to coffee. […] In two other cases, 0.04% by weight is added to coffee along with 0.02% by weight of saccharin and 3% by weight of sucrose, respectively. […] B.
Cups of coffee are prepared: To each is added 500 ppm by weight, basis solution, of one of each of the sweeteners prepared in Examples II-VIII. The coffees present a sweetened taste when sampled.
Gelatin, food color and fruit flavor are dissolved in water at levels suitable for forming a jelled food product. The solution is not sweet. The materials of Claims II-VIII are each added to separate samples in amounts of 600 ppm and the samples are cast into jelled products. The resulting gelatin products are sweet.

A short description of series [4]: Stability test: anaerobic incubation with fresh rat cecal contents, 37° C. Format: in vitro ADME. Here is the method: An important property of these stevioside analogs is their stability and resistance to conversion to steviol at the conditions of the mammalian gastrointestinal tract. […] At these conditions, no degradation to steviol occurs to a limit of detection of 0.13%.
Steviolbioside, 3-sulfopropyl ester, potassium salt prepared in Part B. was incubated anaerobically for three days at 37° C. with 5 wt% fresh rat cecal contents, at concentrations of 0.25, 0.5, and 1.0 mg/ml in sterile Krebs-Ringer 0.25M phosphate buffer (pH 7.4) containing 0.25 mg/ml dithiothreitol and 0.25 mg/ml α-D-glucose. […] No steviol (Rf =0.95; tR =31.3 min) was detected. After 3 days the bacterial cells were sedimented by centrifugation. The sediment was extracted (THF), as was the supernatant, after lyophilization. […] With a detection limit of […], as little as 0.03 and 0.13 percent degradation to steviol could have been detected for the sediment and supernatant fractions, respectively.

Series [5] has as its system ATP synthetase. To be noted: in cell mitochondria; Vignais 1966; cited from earlier work.
For series [6] the following is noted: likelihood suggested by Wingard et al., 1980; cited from earlier work.
The conditions of series [7]: Dorfman et al.; cited from earlier work.
The conditions of series [8]: Wingard et al., Experientia; cited from earlier work.
The conditions of series [9]: Bridel et al., cited from earlier work.
The conditions of series [10]: likelihood suggested by Wingard et al., 1980; cited from earlier work. The source holds these as a separate data set.
Setting [11] is: 1000 ppm by weight in distilled water.
Where [12] appears, read: compared with material of Example I.

Molecules are shown by their SMILES. Counter-ions that a name gives are not always drawn.

Consider `C=C1C[C@@]23CC[C@H]4[C@@](C)(CCC[C@@]4(C)C(=O)OCCC(N)C(=O)O)[C@@H]2CC[C@]1(O[C@@H]1O[C@H](CO)[C@@H](O)[C@H](O)[C@H]1O[C@@H]1O[C@H](CO)[C@@H](O)[C@H](O)[C@H]1O)C3` (some centres unmarked) [VI], for which the “taste of the material” value in series [1] was “sweet and sucrose like”.
As to `O=C1NS(=O)(=O)c2ccccc21` [Saccharin, saccharin, reference compound], the “Ip, sample intensity relative to 10% sucrose” value in [2] is on record as 0.98(0.09). For the same molecule, in series [1], the “Pm, potency compared to sucrose = 1, molar basis” value is given as 180(20); the “Pw, potency compared to sucrose = 1, weight basis” value was 300(30); the “Taste Character, Bitter” value is reported as 12(8) %; the “Taste Character, Other” value is on record as 3(2) %. In series [1], the “Taste Character, Salty” value is listed as 0(0) %; the “Taste Character, Sour” value was 0(0) %; the “Taste Character, Sweet” value was 85(6) %; the “Taste Character, Sweet/bitter, other” value is recorded as 85/15.
As to `C=C1C[C@@]23CC[C@H]4[C@@](C)(CCC[C@@]4(C)C(=O)OCCCS(=O)(=O)O)[C@@H]2CC[C@]1(O[C@@H]1O[C@H](CO)[C@@H](O)[C@H](O)[C@H]1O[C@@H]1O[C@H](CO)[C@@H](O)[C@H](O)[C@H]1O)C3` [Example I, Steviolbioside, 3-sulfopropyl ester, potassium salt], the “Ip, sample intensity relative to 10% sucrose” value in series [2] is 0.84(0.06). Further, the taste quality entry in series [1] (0.0534 wt%) is on record as “very sucrose-like, having negligible off-flavors”. Further, the sweetness equivalent in series [1] (0.0534 wt% in distilled water) is recorded as 8-9 wt% sucrose. Moreover, the taste of solution result in [1] (0.2 wt% in distilled water) is recorded as “very intense sweet taste”. In series [1], the “Pm, potency compared to sucrose = 1, molar basis” value was 360(20); the “Pw, potency compared to sucrose = 1, weight basis” value was 160(10); the “Taste Character, Bitter” value is 4(6) %; the “Taste Character, Other” value is 4(4) %. Further, in series [1], the “Taste Character, Salty” value is on record as 0(0) %; the “Taste Character, Sour” value was 0(0) %; the “Taste Character, Sweet” value was 92(6) %; the “Taste Character, Sweet/bitter, other” value is given as 92/8. In addition, the “taste compared with saccharin and stevioside” value in series [1] (Table II) is “superior to the tastes of saccharin and stevioside itself”. For the same molecule, the “sweetness in comestibles, with co-sweetener” value in series [3] (0.04% by weight in coffee with 0.02% saccharin or 3% sucrose) is “sweetness is imparted”. Moreover, the sweetness in comestibles entry in series [3] (0.08% by weight in unsweetened cola, unsweetened lemonade and coffee) is recorded as “sweetness is imparted”. The “time within which all the initial ester was consumed” value in [4] (5 wt% fresh rat cecal contents, 0.25, 0.5 and 1.0 mg/ml, pH 7.4, 37° C., anaerobic, TLC and HPLC) is not above 24 h. In addition, in series [4] (after 3 days, sediment and supernatant extracts), the “steviol in THF extracts (HPLC)” value is reported as “none to be detectable”. In addition, the “steviol detected (TLC and HPLC of incubation)” value in series [4] (rat cecal contents, 37° C.) is on record as “No steviol”. The degradation product formed entry in series [4] (rat cecal contents, within 24 h, TLC and HPLC) is “apparently only the sulfopropyl ester of steviol”.
With `C=C1C[C@@]23CC[C@H]4[C@@](C)(CCC[C@@]4(C)C(=O)O)[C@@H]2CC[C@]1(O)C3` [steviol], the “inhibition of ATP synthetase compared with atractyligenin” value in series [5] is recorded as “even more potent inhibitor of ATP synthetase”. The “absorption through the gastrointestinal tract wall” value in series [6] is listed as “completely absorbed”. Besides, the antiandrogenic effects entry in series [7] was “antiandrogenic effects”.
With `C=C1C[C@@]23CC[C@H]4[C@@](C)(CCC[C@@]4(C)C(=O)OC(CCC(=O)O)C(=O)O)[C@@H]2CC[C@]1(O[C@@H]1O[C@H](CO)[C@@H](O)[C@H](O)[C@H]1O[C@@H]1O[C@H](CO)[C@@H](O)[C@H](O)[C@H]1O)C3` (some centres unmarked) [V], the “taste of the material” value in [1] is “sweet”.
For the molecule `C=C1C[C@@]23CC[C@H]4[C@@](C)(CCC[C@@]4(C)C(=O)OCCC(S(=O)(=O)O)S(=O)(=O)O)[C@@H]2CC[C@]1(O[C@@H]1O[C@H](CO)[C@@H](O)[C@H](O)[C@H]1O[C@@H]1O[C@H](CO)[C@@H](O)[C@H](O)[C@H]1O)C3` [VIII], the taste of solution entry in series [2] (setting [11]) is given as “exceedingly sweet”. The “sweetness intensity equal to sucrose solution” value in series [1] (setting [11]) is on record as 10-12 % sucrose.
For the molecule `C=C1C[C@@]23CC[C@H]4[C@@](C)(CCC[C@@]4(C)C(=O)OCCCCS(=O)(=O)O)[C@@H]2CC[C@]1(O[C@@H]1O[C@H](CO)[C@@H](O)[C@H](O)[C@H]1O[C@@H]1O[C@H](CO)[C@@H](O)[C@H](O)[C@H]1O)C3` [III, steviolbioside, 4-sulfobutyl ester, sodium salt], the “taste of the material” value in series [1] is recorded as “sweet, like the material of Example I”.
Same read-out and setting: with `C=C1C[C@@]23CC[C@H]4[C@@](C)(CCC[C@@]4(C)C(=O)OCC(=O)O)[C@@H]2CC[C@]1(O[C@@H]1O[C@H](CO)[C@@H](O)[C@H](O)[C@H]1O[C@@H]1O[C@H](CO)[C@@H](O)[C@H](O)[C@H]1O)C3` [VII, steviolbioside, carboxymethyl ester, sodium salt] the entry was “sweet”.
Consider `C=C1C[C@@]23CC[C@H]4[C@@](C)(CCC[C@@]4(C)C(=O)OCCCS(=O)(=O)O)[C@@H]2CC[C@]1(O[C@@H]1O[C@H](CO)[C@@H](O)[C@H](O)[C@H]1O[C@@H]1O[C@H](CO)[C@@H](O)[C@H](O)[C@H]1O)C3` [II, steviolbioside, 3-sulfopropyl ester, sodium salt], for which the “taste properties evaluated as in Part D of Example I” value in series [1] (setting [12]) is listed as “same advantageous properties”. Further, the “use in comestibles evaluated as in Part E of Example I” value in [3] (setting [12]) is listed as “same advantageous properties”. Further, the “stability properties evaluated as in Part C of Example I” value in series [4] (setting [12]) was “same advantageous properties”.
For `C=C1C[C@@]23CC[C@H]4[C@@](C)(CCC[C@@]4(C)C(=O)O[C@@H]4O[C@H](CO)[C@@H](O)[C@H](O)[C@H]4O)[C@@H]2CC[C@]1(O[C@@H]1O[C@H](CO)[C@@H](O)[C@H](O)[C@H]1O[C@@H]1O[C@H](CO)[C@@H](O)[C@H](O)[C@H]1O)C3` [Stevioside, stevioside], the “Ip, sample intensity relative to 10% sucrose” value in series [2] is reported as 0.94(0.06). Further, in series [1], the “Pm, potency compared to sucrose = 1, molar basis” value is 440(30); the “Pw, potency compared to sucrose = 1, weight basis” value is on record as 190(10); the “Taste Character, Bitter” value is 30(10) %; the “Taste Character, Other” value was 8(5) %. Moreover, in [1], the “Taste Character, Salty” value is given as 0(0) %; the “Taste Character, Sour” value is 0(0) %; the “Taste Character, Sweet” value was 62(10) %; the “Taste Character, Sweet/bitter, other” value is given as 62/38. The degradation to steviol result in series [8] is “essentially quantitative degradation to steviol”. Besides, in series [9] (1931), the “sweetness relative to sucrose” value was “about 300 times as sweet as sucrose”. Besides, the bitterness of taste result in series [9] is “substantial degree of bitterness”. For the same molecule, the “conversion to steviol in vivo” value in series [10] is reported as “largely converted to steviol in vivo”.

The values above are taken from patent publication US4454290A, “Stevioside analogs” (Dynapol, priority 1981, dated 1984).
